Columns and labels:
[1] = tested on: B16F10 mouse melanoma cells; assay: Transwell (matrigel-coated) migration assay for metastasis inhibition; assay type: cell-based; conditions: 1 μg/ml DMGF, 4 hours, 8 μm film coated with matrigel, compared to the group without DMGF (100%)
Experimental: B16F10 mouse melanoma cells were maintained in 1% antibiotics of Dulbecco's modified Eagle's medium (DMEM; Gibco/Invitrogen, Carlsbad, Calif., USA) supplemented with heat-inactivated 10% fetal bovine serum (Gibco/Invitrogen, Carlsbad, Calif., USA). Antibiotic were preferably penicillin/streptomycin/amphotericin. Cell suspension (3×10^4) were treated with or without 1 μg/ml DMGF in the upper well of a transwell plate. The well without DMGF was used as a control group of experiment. DMEM cell culture medium was added into the upper and lower wells, and the lower well was further added fetal bovine serum, and then maintained in the incubator under 37° C. In other embodiment, B16F10 cell suspension was allowed to incubate in the 4 or 6 upper wells of transwell plate to comduct second repeat or duplicate tests, which is not for limited sense of present invention.
The bottom side of the upper well, which is between the upper well and the lower well, includes a transparent film. The present example applied 8 μm (coated with matrigel) transparent films for tumor metastasis test. […] The cells on the top of the filter were removed with a cotton swab and migrated cells on the underside were fixed with methanol, stained with 50 μg/ml propidium iodide and counted with a fluorescence microscope. […]

[2] = tested on: Matrix metalloproteases-2 (MMP2) expression in B16F10 cells; assay: MMP2 RNA expression by real-time PCR; assay type: cell-based, mouse; conditions: 1 μg/ml DMGF, 0 hour group defined as 1 times
Experimental: Culturing condition of B16F10 cells with tissue culture techniques is the same as example 2. B16F10 cell suspension was incubated in at least three plates, two of which were added biflavonoid DMGF (final concentration 1 μg/ml) and set back to 37° C. incubator and incubating for 12 and 24 hours, respectively. The culture medium and additional compound were sucked, and then the plate was washed with PBS. B16F10 cells were collected with trypsin-EDTA. And the third well was processes without DMGF, colleting B16F10 cells according to the above-mentioned method. Then total B16F10 cellular RNA was extracted with TRIzol (Invitrogen Life Technologies, Carlsbad, Calif., USA) and reverse-transcribed into cDNA using the extracted RNA template. The cDNA was further a template for real-time polymerase chain reaction (Real-time PCR). The forward primer and the reverse primer of MMP2 were [NT] and [NT], repectively, thus quantified the MMP2 expression level in the above-mentioned time period of control group and experiment group of the present example. In detail, reverse-transcription PCR was treated with SuperScript First-Strand system (Invitrogen Life Technologies). […] While the MMP2 expression level of “0 hour” group is defined as 1 times, the MMP2 expression level of “12 hours” group and “24 hours” group are both calculated according to the “0 hour” group.

[3] = tested on: SVEC4-10 mouse vascular endothelial cells; assay: Polymerization of fibrous actin (Phallotoxin/DAPI staining); assay type: cell-based; conditions: SVEC4-10 cells, 16 ng/ml VEGF, 1 μg/ml DMGF, 3 to 4 hours
Experimental: Tissue culture technology for culturing SVEC4-10 mouse vascular endothelial cells can be referred to the culturing method of B16F10 in example 2, and is not repeated here. SVEC4-10 cell suspension (3×10^4) were incubated in at least two plates and treated with 16 ng/ml VEGF (Upstate Inc., Lake Placid, N.Y., USA) medium in the two 96-well plate, and one of the plate was further added with 1 μg/ml DMGF as an experiment group. After adding the culture medium and the above-mentioned compound, SVEC4-10 cells were incubated in 37° C. incubator for 3 to 4 hours and then dyed with diamidino-phenyl-indole (DAPI) and Phallotoxin, respectively. Diamidino-phenyl-indole can be combined with double-stranded DNA to label the position of nucleus. Phallotoxin capable of combining with fibrous actin is often used as the dye for observing the polymerization of fibrous actin. After dyeing, the polymerization of fibrous actin was observed under 40 magnification microscopic lens.
“A” (filaments or spot) in FIG.3 marks the structure of fibrous actin, and “B” (circle) in FIG. 3 marks the position of nucleus. […] Polymerization of fibrous actin is correlated with cell migration in which polymerization of fibrous actin happens. Cell migration is the early step of tumor metastasis.

B16F10 cells = assay: Anti-metastatic activity in mice bearing B16F10 tumors (tumor volume); assay type: in vivo; conditions: C57BL/6 mice with B16F10 tumors, 10 mg/kg and 50 mg/kg DMGF injected once every 2 to 3 days
Experimental: At least 3 8-week-old C57BL/6 mice (female) were i.v. injected with 1×10^6 B16F10 cells. Mice bearing tumors with more than 30 mm^3 were injected with PBS, 10 mg/kg DMGF and 50 mg/kg DMGF once every 2 to 3 days. […] That is, with reference to the result of example 5, pharmaceutical composition with DMGF indeed inhibits tumor cell migration, thus inhibiting tumor metastasis.

TNF-α = assay: LPS-induced TNF-α secretion by mouse splenocytes (ELISA); assay type: cell-based; conditions: 1 μg/ml LPS, 1.25 μg/ml DMGF, 72 hours; group without DMGF up to 200 pg/ml
Experimental: 1×10^6 mouse splenocyte suspension was seeded in 24-well culture plate supplemented with 1 μg/ml lipopolysaccharide (LPS) for inducing the immune cells of mouse splenocyte secreting TNF-α, and 0, 0.3125, 0.625, 1.25 μg/ml DMGF to each group. The mouse splenocyte were further incubated in 37° C. incubator for 72 hours. The culture medium was collected and tested for TNF-α concentration by ELISA kit for detecting TNF-α.
With the use of increased DMGF dose level, the lower the TNF-α concentration. For example, mouse splenocyte treated with 1.25 μg/ml DMGF secreted TNF-α concentration fell to 60 pg/ml. With reference to the result of example 6, pharmaceutical composition with DMGF has the ability to inhibit immune cells secreting TNF-α to inhibit inflammation. Since inflammation is related to improving angiogenesis and invasion, migration or other pathological effects of tumor cells, pharmaceutical composition with DMGF has the ability to inhibit inflammation, thus inhibiting tumor metastasis.

Aspergillus flavus = conditions: cited from earlier work

For COc1cc2oc(-c3ccc(O)cc3)cc(=O)c2c(O)c1-c1c(OC)cc(O)c2c(=O)cc(-c3ccc(O)cc3)oc12 [DMGF, 7,7″-Dimethoxyagastisflavone], the “reduction in the capacity of B16F10 cells to migrate through the membrane of transwell chambers” value [1] was “about 65%”, the “MMP2 RNA expression level relative to 0 hour group” value ([2]; 12 hours) was 0.5 times and the “MMP2 RNA expression level relative to 0 hour group” value ([2]; 24 hours) was 0.3 times. For the same molecule, the “polymerization of fibrous actin” value [3] was “multiple dots without polymerization of fibrous actin”, the “tumor volume versus PBS-treated mouse” value (B16F10 cells) was “significantly smaller” and the “TNF-α concentration secreted by mouse splenocyte” value (TNF-α) was 60 pg/mL. The “inhibition of aflatoxin secretion” value (Aspergillus flavus) was “inhibiting Aspergillus flavus secreting aflatoxin”.

— US20150328183A1, “PHARMACEUTICAL COMPOSITION AND USE FOR APPLYING 7,7''-DIMETHOXYAGASTISFLAVONE IN INHIBITING TUMOR METASTASIS” (NATIONAL CHIAO TUNG UNIVERSITY, priority 2014, published 2015)
